Source: ChEMBL document CHEMBL1914436, “Synthesis and in vivo evaluation of cyclic diaminopropane BACE-1 inhibitors” (Bioorg Med Chem Lett, 2011)
Blank lines part the entries; values can stand above or below the molecule they belong to. Active and inactive are the calls of the source. No cut-off for these calls is given here.

How the values were obtained:
Beta-secretase 1 [1] = molecular target: T1, Beta-secretase 1 (Homo sapiens, UniProt P56817); experiment: Inhibition of BACE-1 in human HEK293 cells overexpressing APP 695 swedish mutation assessed as inhibition of amyloid beta (1 to 40) production by immunoprecipitation assay; type: cell-based
T1 sequence (P56817 whole entry): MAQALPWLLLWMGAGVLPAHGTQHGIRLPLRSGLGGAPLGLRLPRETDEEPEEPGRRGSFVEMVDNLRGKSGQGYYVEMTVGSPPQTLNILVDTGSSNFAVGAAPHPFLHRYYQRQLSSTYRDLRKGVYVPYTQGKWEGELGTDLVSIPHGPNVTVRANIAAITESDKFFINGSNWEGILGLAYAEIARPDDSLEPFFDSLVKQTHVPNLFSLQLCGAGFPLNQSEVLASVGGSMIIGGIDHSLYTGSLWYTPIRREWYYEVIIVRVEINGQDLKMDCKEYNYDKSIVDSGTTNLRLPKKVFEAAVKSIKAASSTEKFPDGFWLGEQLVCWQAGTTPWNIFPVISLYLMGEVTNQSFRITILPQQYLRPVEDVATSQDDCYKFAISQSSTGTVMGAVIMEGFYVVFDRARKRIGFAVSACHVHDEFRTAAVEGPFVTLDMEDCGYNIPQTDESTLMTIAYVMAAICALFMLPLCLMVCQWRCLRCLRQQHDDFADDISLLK

Beta-secretase 1 [2] = molecular target: T1, Beta-secretase 1; experiment: Inhibition of BACE-1
Mus musculus [3] = experiment: Antialzheimer activity in sc dosed P-gp knockout mouse plasma assessed as reduction in amyloid beta (1 to 40) level after 5 hrs by ELISA; type: functional
Rattus norvegicus [4] = experiment: Antialzheimer activity in rat brain assessed as amyloid beta (1 to 40) level at 3 mg/kg, sc relative to vehicle treated control; type: functional; conditions: route subcutaneous
[5] = Fraction unbound in sc dosed rat plasma; type: ADME, organism-based
Rattus norvegicus [6] = experiment: Antialzheimer activity in rat brain assessed as amyloid beta (1 to 40) level at 10 mg/kg, sc relative to vehicle treated control; type: functional; conditions: route subcutaneous
Brain [7] = experiment: Drug level in rat brain at 100 mg/kg, sc; type: ADME, organism-based; set-up: dose 100 mg/kg, route subcutaneous; conditions: in vivo, read-out: Drug uptake
Rattus norvegicus [8] = experiment: Antialzheimer activity in rat plasma assessed as reduction in amyloid beta (1 to 40) level at 3 mg/kg, sc relative to vehicle treated control; type: functional; set-up: scale not given: the % may be the effect or the level left; conditions: route subcutaneous
Plasma [9] = experiment: Total plasma concentration in rat at 3 mg/kg, sc; type: ADME, organism-based; set-up: dose 3 mg/kg, route subcutaneous; conditions: in vivo
Mus musculus [10] = experiment: Antialzheimer activity in wild type mouse brain assessed as reduction in amyloid beta (1 to 40) level up to 100 mg/kg, sc; type: functional, organism-based; set-up: dose 100 mg/kg
Plasma [11] = experiment: Total plasma concentration in rat at 10 mg/kg, sc; type: ADME, organism-based; set-up: dose 10 mg/kg, route subcutaneous; conditions: in vivo
Rattus norvegicus [12] = experiment: Antialzheimer activity in rat plasma assessed as amyloid beta (1 to 40) level at 10 mg/kg, sc relative to vehicle treated control; type: functional; conditions: route subcutaneous
Brain [13] = experiment: Drug level in rat brain at 10 mg/kg, sc; type: ADME, organism-based; set-up: dose 10 mg/kg, route subcutaneous; conditions: in vivo, read-out: Drug uptake
[14] = Efflux ratio of permeability from basolateral to apical side to apical to basolateral side of human Caco2 cells; type: ADME, cell-based; conditions: Caco-2
[15] = Permeability from basolateral to apical side of human Caco2 cells; type: ADME, cell-based; conditions: Caco-2, read-out: permeability
[16] = Ratio of drug level in brain to plasma in rat at 3 mg/kg, sc; type: ADME, organism-based; set-up: dose 3 mg/kg, route subcutaneous; conditions: brain and plasma, read-out: BPR
[17] = Fraction unbound in sc dosed mouse plasma; type: ADME, organism-based
[18] = Ratio of drug level in brain to plasma in rat at 100 mg/kg, sc; type: ADME, organism-based; set-up: dose 100 mg/kg, route subcutaneous; conditions: brain and plasma, read-out: BPR
Rattus norvegicus [19] = experiment: Antialzheimer activity in rat brain assessed as amyloid beta (1 to 40) level at 100 mg/kg, sc relative to vehicle treated control; type: functional; conditions: route subcutaneous
Rattus norvegicus [20] = experiment: Antialzheimer activity in rat plasma assessed as amyloid beta (1 to 40) level at 100 mg/kg, sc relative to vehicle treated control; type: functional; conditions: route subcutaneous
Mus musculus [21] = experiment: Antialzheimer activity in sc dosed P-gp knockout mouse brain assessed as reduction in amyloid beta (1 to 40) level after 5 hrs by ELISA; type: functional
Brain [22] = experiment: Drug level in rat brain at 3 mg/kg, sc; type: ADME, organism-based; set-up: dose 3 mg/kg, route subcutaneous; conditions: in vivo, read-out: Drug uptake
Plasma [23] = experiment: Total plasma concentration in rat at 100 mg/kg, sc; type: ADME, organism-based; set-up: dose 100 mg/kg, route subcutaneous; conditions: in vivo
Rattus norvegicus [24] = experiment: Antialzheimer activity in rat plasma assessed as amyloid beta (1 to 40) level at 3 mg/kg, sc relative to vehicle treated control; type: functional; conditions: route subcutaneous
[25] = Ratio of drug level in brain to plasma in rat at 10 mg/kg, sc; type: ADME, organism-based; set-up: dose 10 mg/kg, route subcutaneous; conditions: brain and plasma, read-out: BPR
[26] = Permeability from apical to basolateral side of human Caco2 cells; type: ADME, cell-based; conditions: Caco-2, read-out: permeability
Beta-secretase 1 [27] = molecular target: T1, Beta-secretase 1; experiment: Displacement of [3H]BMS-599240 from recombinant human BACE-1
Beta-secretase 1 [28] = molecular target: T1, Beta-secretase 1; experiment: Inhibition of BACE-1 in human HEK293 cells overexpressing APP 695 swedish mutation assessed as inhibition of amyloid beta (1 to 40) production by ELISA method; type: cell-based
[29] = Fraction unbound in rat plasma at 30 mg/kg, ip; type: ADME, organism-based; set-up: dose 30 mg/kg, route intraperitoneal
Plasma [30] = experiment: Drug level in rat plasma at 30 mg/kg, ip; type: ADME, organism-based; set-up: dose 30 mg/kg, route intraperitoneal; conditions: in vivo, read-out: Drug uptake
Brain [31] = experiment: Drug level in rat brain at 100 mg/kg, ip; type: ADME, organism-based; set-up: dose 100 mg/kg, route intraperitoneal; conditions: in vivo, read-out: Drug uptake
Plasma [32] = experiment: Antialzheimer activity in ip dosed rat assessed as reduction in plasma amyloid beta (1 to 40) level measured at 5 hrs post-dose; type: functional
[33] = Ratio of drug level in brain to plasma in rat at 100 mg/kg, ip at 5 hrs; type: ADME, organism-based; set-up: dose 100 mg/kg, route intraperitoneal; conditions: brain and plasma, read-out: BPR
Rattus norvegicus [34] = experiment: Antialzheimer activity in rat assessed as reduction in brain amyloid beta (1 to 40) level up to 100 mg/kg, ip measured at 5 hrs post-dose; type: functional, organism-based; set-up: dose 100 mg/kg

SMILES: CCCN(CCC)C(=O)c1cccc(C(=O)N[C@@H](Cc2cc(F)cc(F)c2)[C@H](O)[C@H]2Cc3ccccc3CN2)c1 (stereo in doubt; 15a)
IC50 (Beta-secretase 1 [2]): 1100 nM

SMILES: CCCS(=O)(=O)[C@H]1CN[C@@H]([C@@H](O)[C@H](Cc2cc(F)cc(F)c2)NC(=O)[C@H](CCc2ccccc2)N2CC[C@](NC(C)=O)(C(C)CC)C2=O)C1 (stereo partly drawn)
ED50 (Mus musculus [3]): 30 mg/kg
IC50 (Beta-secretase 1 [1]): 5 nM
Activity (Rattus norvegicus [4]): 85%
fraction unbound [5]: 0.3
Activity (Rattus norvegicus [6]): 92%
concentration (Brain [7]): 260 nM
Activity (Rattus norvegicus [8]): 72%
concentration (Plasma [9]): 160 nM
Activity (Mus musculus [10]): inactive
concentration (Plasma [11]): 740 nM
Activity (Rattus norvegicus [12]): 10%
concentration (Brain [13]): 78 nM
efflux ratio [14]: > 4
Papp B→A [15]: 5.8 ×10⁻⁶ cm/s
Kp [16]: 0.32
fraction unbound [17]: 0.24
Kp [18]: 0.05
Activity (Rattus norvegicus [19]): 91%
Activity (Rattus norvegicus [20]): 15%
ED50 (Mus musculus [21]): 50 mg/kg
concentration (Brain [22]): 46 nM
concentration (Plasma [23]): 5800 nM
Activity (Rattus norvegicus [24]): 28%
Kp [25]: 0.11
Papp A→B [26]: < 1.5 ×10⁻⁶ cm/s

SMILES: CCCS(=O)(=O)[C@@H]1CN[C@@H]([C@@H](O)[C@H](Cc2cc(F)cc(F)c2)NC(=O)[C@H](CCc2ccccc2)N2CC[C@](NC(C)=O)(C(C)CC)C2=O)C1 (stereo partly drawn)
IC50 (Beta-secretase 1 [1]): 45 nM

SMILES: CCCS[C@H]1CN[C@@H]([C@@H](O)[C@H](Cc2cc(F)cc(F)c2)NC(=O)[C@H](CCc2ccccc2)N2CC[C@](NC(C)=O)(C(C)CC)C2=O)C1 (stereo partly drawn)
IC50 (Beta-secretase 1 [1]): 15 nM

SMILES: CCC(C)[C@@]1(NC(C)=O)CCN([C@@H](CCc2ccccc2)C(=O)N[C@@H](Cc2cc(F)cc(F)c2)[C@H](O)C2Cc3cccc(OC)c3CN2)C1=O (stereo partly drawn)
IC50 (Beta-secretase 1 [1]): 20 nM
IC50 (Beta-secretase 1 [2]): 4 nM

SMILES: CCC(C)[C@@]1(N)CCN([C@@H](CCc2ccccc2)C(=O)N[C@@H](CC(C)C)[C@@H](O)C[C@@H](C)C(=O)NCCCCc2ccccc2)C1=O (stereo partly drawn)
IC50 (Beta-secretase 1 [2]): 141 nM

SMILES: CCCC[C@H]1CCN([C@@H](CCc2ccccc2)C(=O)N[C@@H](Cc2cc(F)cc(F)c2)[C@H](O)[C@H]2Cc3ccccc3CN2)C1=O
IC50 (Beta-secretase 1 [2]): 1000 nM

SMILES: CCC(C)[C@@]1(NC(C)=O)CCN([C@@H](CCc2ccccc2)C(=O)N[C@@H](Cc2ccccc2)[C@H](O)CNCc2cccc(OC)c2)C1=O (stereo partly drawn)
IC50 (Beta-secretase 1 [27]): 5 nM
IC50 (Beta-secretase 1 [28]): 11 nM

SMILES: CCCOc1cccc2c1CNC([C@@H](O)[C@H](Cc1cc(F)cc(F)c1)NC(=O)[C@H](CCc1ccccc1)N1CC[C@](NC(C)=O)(C(C)CC)C1=O)C2 (stereo partly drawn)
IC50 (Beta-secretase 1 [1]): 140 nM
IC50 (Beta-secretase 1 [2]): 17 nM

SMILES: CCC(C)[C@@]1(NC(C)=O)CCN([C@@H](CCc2ccccc2)C(=O)N[C@@H](Cc2cc(F)cc(F)c2)[C@H](O)[C@@H]2Cc3ccccc3CN2)C1=O (stereo partly drawn)
IC50 (Beta-secretase 1 [2]): 600 nM

SMILES: CCCCN(C)C(=O)n1cc(C(=O)N[C@@H](Cc2cc(F)cc(F)c2)[C@H](O)[C@H]2Cc3ccccc3CN2)c2cccnc21
IC50 (Beta-secretase 1 [2]): 1200 nM

Now from value to molecule, other results behind:

IC50 (Beta-secretase 1 [1]): > 330 nM
SMILES: CCCC[C@@H]1CCN([C@@H](C)C(=O)N[C@@H](Cc2cc(F)cc(F)c2)[C@H](O)[C@H]2C[C@@H](S(=O)(=O)CCC)CN2)C1=O

IC50 (Beta-secretase 1 [1]): 3 nM
SMILES: CCC(C)[C@@]1(NC(C)=O)CCN([C@@H](CCc2ccccc2)C(=O)N[C@@H](Cc2cc(F)cc(F)c2)[C@H](O)[C@H]2C[C@@H](S(=O)(=O)Cc3ccc(F)cc3)CN2)C1=O (stereo partly drawn)

IC50 (Beta-secretase 1 [2]): 870 nM
SMILES: CCC(C)[C@@]1(NC(C)=O)CCN([C@@H](CCc2ccccc2)C(=O)N[C@@H](Cc2cc(F)cc(F)c2)[C@H](O)C2Cc3cccc(O)c3CN2)C1=O (stereo partly drawn)

IC50 (Beta-secretase 1 [1]): 68 nM
SMILES: CCCN(CCC)C(=O)c1cc(C(=O)N[C@@H](Cc2cc(F)cc(F)c2)[C@H](O)[C@H]2C[C@@H](S(=O)(=O)CCC)CN2)cc(-c2ncco2)c1

IC50 (Beta-secretase 1 [1]): 12 nM
SMILES: CCC(C)[C@@]1(NC(C)=O)CCN([C@@H](CCc2ccccc2)C(=O)N[C@@H](Cc2cc(F)cc(F)c2)[C@H](O)[C@H]2C[C@@H](S(=O)(=O)c3ccccc3)CN2)C1=O (stereo partly drawn)

IC50 (Beta-secretase 1 [1]): 10 nM
IC50 (Beta-secretase 1 [2]): 8 nM
SMILES: CC(=O)N[C@]1(CC(C)C)CCN([C@@H](CCc2ccccc2)C(=O)N[C@@H](Cc2cc(F)cc(F)c2)[C@H](O)C2Cc3ccccc3CN2)C1=O (stereo partly drawn)

IC50 (Beta-secretase 1 [2]): 1600 nM
SMILES: CCCN(CCC)C(=O)c1cccc(C(=O)N[C@@H](Cc2cc(F)cc(F)c2)[C@H](O)[C@H]2Cc3ccccc3CN2)c1 (stereo in doubt; 15b)

IC50 (Beta-secretase 1 [2]): 88 nM
SMILES: CC[C@@H](C)[C@H](N)C(=O)N[C@@H](CCc1ccccc1)C(=O)N[C@@H](CC(C)C)[C@@H](O)C[C@@H](C)C(=O)NCCCCc1ccccc1

IC50 (Beta-secretase 1 [27]): 2 nM
fraction unbound [29]: 0.011
concentration (Plasma [30]): 3700 nM
efflux ratio [14]: 1.5
Papp B→A [15]: 11.4 ×10⁻⁶ cm/s
concentration (Brain [31]): 113 nM
IC50 (Beta-secretase 1 [28]): 3 nM
Kp at 5 h [33]: < 0.05
Papp A→B [26]: 7.5 ×10⁻⁶ cm/s
SMILES: CCC(C)[C@@]1(NC(C)=O)CCN([C@@H](CCc2ccccc2)C(=O)N[C@@H](Cc2cc(F)cc(F)c2)[C@H](O)CNCc2cccc(OC)c2)C1=O (stereo partly drawn)
Activity (Plasma [32]): Dose-dependent effect
ED50 (Plasma [32]): 30 mg/kg
Activity (Rattus norvegicus [34]): inactive

IC50 (Beta-secretase 1 [1]): 110 nM
IC50 (Beta-secretase 1 [2]): 54 nM
SMILES: CCC(C)[C@@]1(NC(C)=O)CCN([C@@H](CCc2ccccc2)C(=O)N[C@@H](Cc2cc(F)cc(F)c2)[C@H](O)C2Cc3ccccc3CN2)C1=O (stereo partly drawn)

IC50 (Beta-secretase 1 [2]): 1600 nM
SMILES: CCCC[C@H]1CCN([C@@H](C)C(=O)N[C@@H](Cc2cc(F)cc(F)c2)[C@H](O)[C@H]2Cc3ccccc3CN2)C1=O

IC50 (Beta-secretase 1 [2]): 140 nM
SMILES: CCC(C)[C@@]1(NC(C)=O)CCN([C@@H](CCc2ccccc2)C(=O)N[C@@H](Cc2cc(F)cc(F)c2)[C@H](O)[C@@H]2Cc3cccc(OC)c3CN2)C1=O (stereo partly drawn)
